Test results taken from the NIST ThermoML archive (doi:10.1021/je500380x).
Numbers after ± are expanded uncertainties.

Test: mn = molality of the nth substance listed, in mol/kg
Conditions: 100 kPa, Liquid; for electrical conductivity: Alternating current cell with electrodes; for viscosity: Falling or rolling sphere viscometry; for mass density: Vibrating tube method

CCC(=O)OCCN1CCNCC1 [2-(piperazin-1-yl)ethyl propionate] + O
Conditions	electrical conductivity [S/m]	mass density [kg/m3]	viscosity [mPa·s]
293.15 K, m1 = 0.05	0.239 ± 0.003	1000.1 ± 0.11	1.031 ± 0.013
293.15 K, m1 = 0.0999	0.436 ± 0.004	1002.01 ± 0.11	1.081 ± 0.013
293.15 K, m1 = 0.1996	0.762 ± 0.008	1005.79 ± 0.11	1.172 ± 0.014
293.15 K, m1 = 0.3	1.028 ± 0.01	1009.71 ± 0.11	1.247 ± 0.015
293.15 K, m1 = 0.3997	1.25 ± 0.013	1013.54 ± 0.11	1.349 ± 0.017
293.15 K, m1 = 0.5001	1.406 ± 0.014	1017.42 ± 0.11	1.464 ± 0.018
293.15 K, m1 = 0.5992	1.56 ± 0.016	1021.32 ± 0.11	1.581 ± 0.02
293.15 K, m1 = 0.6993	1.68 ± 0.017	1025.14 ± 0.11	1.726 ± 0.021
293.15 K, m1 = 0.7997	1.77 ± 0.018	1029.27 ± 0.11	1.883 ± 0.023
293.15 K, m1 = 0.9003	1.822 ± 0.018	1033.09 ± 0.11	2.075 ± 0.026
293.15 K, m1 = 0.9988	1.85 ± 0.019	1037.12 ± 0.11	2.263 ± 0.028
293.15 K, m1 = 1.199	1.86 ± 0.019	1045.08 ± 0.11	2.77 ± 0.034
293.15 K, m1 = 1.402	1.8 ± 0.018	1053.12 ± 0.12	3.472 ± 0.043
293.15 K, m1 = 1.6	1.68 ± 0.017	1060.85 ± 0.12	4.338 ± 0.053
293.15 K, m1 = 1.802	1.523 ± 0.015	1068.6 ± 0.12	5.445 ± 0.067
293.15 K, m1 = 1.998	1.35 ± 0.014	1075.94 ± 0.12	7.039 ± 0.087
293.15 K, m1 = 2.2	1.16 ± 0.012	1083.11 ± 0.12	9.362 ± 0.12
293.15 K, m1 = 2.402	0.955 ± 0.01	1090.06 ± 0.12	12.4 ± 0.15
293.15 K, m1 = 2.6	0.779 ± 0.008	1096.1 ± 0.13	18.48 ± 0.23
293.15 K, m1 = 2.798	0.595 ± 0.006	1101.66 ± 0.13	25.9 ± 0.32
293.15 K, m1 = 3.002	0.461 ± 0.005	1106.84 ± 0.13	36.82 ± 0.45
298.15 K, m1 = 0.05	0.267 ± 0.003	998.94 ± 0.11	0.92 ± 0.011
298.15 K, m1 = 0.0999	0.486 ± 0.005	1000.81 ± 0.11	0.962 ± 0.012
298.15 K, m1 = 0.1996	0.848 ± 0.009	1004.54 ± 0.11	1.039 ± 0.013
298.15 K, m1 = 0.3	1.15 ± 0.012	1008.41 ± 0.11	1.103 ± 0.014
298.15 K, m1 = 0.3997	1.4 ± 0.014	1012.17 ± 0.11	1.187 ± 0.015
298.15 K, m1 = 0.5001	1.6 ± 0.016	1015.99 ± 0.11	1.289 ± 0.016
298.15 K, m1 = 0.5992	1.76 ± 0.018	1019.83 ± 0.11	1.389 ± 0.017
298.15 K, m1 = 0.6993	1.89 ± 0.019	1023.57 ± 0.11	1.51 ± 0.019
298.15 K, m1 = 0.7997	2 ± 0.02	1027.65 ± 0.11	1.644 ± 0.02
298.15 K, m1 = 0.9003	2.07 ± 0.02	1031.4 ± 0.11	1.805 ± 0.022
298.15 K, m1 = 0.9988	2.12 ± 0.02	1035.35 ± 0.11	1.964 ± 0.024
298.15 K, m1 = 1.199	2.13 ± 0.02	1043.15 ± 0.11	2.388 ± 0.029
298.15 K, m1 = 1.402	2.06 ± 0.02	1051.04 ± 0.12	2.91 ± 0.036
298.15 K, m1 = 1.6	1.94 ± 0.019	1058.61 ± 0.12	3.684 ± 0.045
298.15 K, m1 = 1.802	1.76 ± 0.018	1066.22 ± 0.12	4.58 ± 0.056
298.15 K, m1 = 1.998	1.57 ± 0.016	1073.41 ± 0.12	5.865 ± 0.072
298.15 K, m1 = 2.2	1.36 ± 0.014	1080.44 ± 0.12	7.721 ± 0.095
298.15 K, m1 = 2.402	1.16 ± 0.012	1087.27 ± 0.12	10.14 ± 0.12
298.15 K, m1 = 2.6	0.931 ± 0.009	1093.23 ± 0.12	14.88 ± 0.18
298.15 K, m1 = 2.798	0.738 ± 0.007	1098.69 ± 0.13	20.54 ± 0.25
298.15 K, m1 = 3.002	0.578 ± 0.006	1103.78 ± 0.13	28.69 ± 0.35
303.15 K, m1 = 0.05	0.296 ± 0.003	997.53 ± 0.11	0.828 ± 0.01
303.15 K, m1 = 0.0999	0.538 ± 0.005	999.38 ± 0.11	0.864 ± 0.011
303.15 K, m1 = 0.1996	0.941 ± 0.009	1003.06 ± 0.11	0.93 ± 0.011
303.15 K, m1 = 0.3	1.28 ± 0.013	1006.88 ± 0.11	0.985 ± 0.012
303.15 K, m1 = 0.3997	1.56 ± 0.016	1010.59 ± 0.11	1.058 ± 0.013
303.15 K, m1 = 0.5001	1.78 ± 0.018	1014.36 ± 0.11	1.145 ± 0.014
303.15 K, m1 = 0.5992	1.97 ± 0.02	1018.15 ± 0.11	1.232 ± 0.015
303.15 K, m1 = 0.6993	2.11 ± 0.02	1021.82 ± 0.11	1.335 ± 0.016
303.15 K, m1 = 0.7997	2.23 ± 0.02	1025.85 ± 0.11	1.45 ± 0.018
303.15 K, m1 = 0.9003	2.31 ± 0.02	1029.53 ± 0.11	1.587 ± 0.02
303.15 K, m1 = 0.9988	2.37 ± 0.02	1033.42 ± 0.11	1.722 ± 0.021
303.15 K, m1 = 1.199	2.4 ± 0.02	1041.09 ± 0.11	2.079 ± 0.026
303.15 K, m1 = 1.402	2.35 ± 0.02	1048.83 ± 0.12	2.519 ± 0.031
303.15 K, m1 = 1.6	2.22 ± 0.02	1056.27 ± 0.12	3.163 ± 0.039
303.15 K, m1 = 1.802	2.04 ± 0.02	1063.74 ± 0.12	3.903 ± 0.048
303.15 K, m1 = 1.998	1.828 ± 0.018	1070.79 ± 0.12	4.953 ± 0.061
303.15 K, m1 = 2.2	1.59 ± 0.016	1077.7 ± 0.12	6.458 ± 0.08
303.15 K, m1 = 2.402	1.37 ± 0.014	1084.44 ± 0.12	8.415 ± 0.1
303.15 K, m1 = 2.6	1.109 ± 0.011	1090.28 ± 0.12	12.17 ± 0.15
303.15 K, m1 = 2.798	0.878 ± 0.009	1095.67 ± 0.13	16.6 ± 0.2
303.15 K, m1 = 3.002	0.722 ± 0.007	1100.68 ± 0.13	22.77 ± 0.28
308.15 K, m1 = 0.05	0.327 ± 0.003	–	0.75 ± 0.009
308.15 K, m1 = 0.0999	0.595 ± 0.006	–	0.783 ± 0.01
308.15 K, m1 = 0.1996	1.042 ± 0.01	–	0.839 ± 0.01
308.15 K, m1 = 0.3	1.416 ± 0.014	–	0.887 ± 0.011
308.15 K, m1 = 0.3997	1.729 ± 0.017	–	0.951 ± 0.012
308.15 K, m1 = 0.5001	1.97 ± 0.02	–	1.027 ± 0.013
308.15 K, m1 = 0.5992	2.19 ± 0.02	–	1.102 ± 0.014
308.15 K, m1 = 0.6993	2.36 ± 0.02	–	1.19 ± 0.015
308.15 K, m1 = 0.7997	2.49 ± 0.03	–	1.292 ± 0.016
308.15 K, m1 = 0.9003	2.59 ± 0.03	–	1.407 ± 0.017
308.15 K, m1 = 0.9988	2.66 ± 0.03	–	–
308.15 K, m1 = 1.199	2.7 ± 0.03	–	–
308.15 K, m1 = 1.402	2.65 ± 0.03	–	–
308.15 K, m1 = 1.6	2.53 ± 0.03	–	–
308.15 K, m1 = 1.802	2.33 ± 0.02	–	–
308.15 K, m1 = 1.998	2.11 ± 0.02	–	–
308.15 K, m1 = 2.2	1.85 ± 0.019	–	–
308.15 K, m1 = 2.402	1.6 ± 0.016	–	–
308.15 K, m1 = 2.6	1.305 ± 0.013	–	–
308.15 K, m1 = 2.798	1.06 ± 0.011	–	–
308.15 K, m1 = 3.002	0.848 ± 0.009	–	–
